Melting point data for 37 compounds are collected here from patent US7718808B2, “Thiazole derivatives” (Kyowa Hakko Kirin Co., Ltd., priority 2003, dated 2010).

For orientation: melting point means the temperature of the solid-liquid transition. `O=C(Nc1nc(-c2ccco2)c(C(=O)c2ccccn2)s1)c1ccccc1` [Compound 199, N-[4-(2-Furyl)-5-(pyridin-2-ylcarbonyl)thiazol-2-yl]benzamide] came in with a melting point of 165 to 171 °C. On to `COc1ccccc1C(=O)Nc1nc(-c2ccco2)c(C(=O)c2ccccn2)s1` [Compound 200, N-[4-(2-Furyl)-5-(pyridin-2-ylcarbonyl)thiazol-2-yl]-2-methoxybenzamide], for which the melting point lay in the range of 205 to 208 °C. Regarding `COc1cccc(C(=O)Nc2nc(-c3ccco3)c(C(=O)c3ccccn3)s2)c1` [Compound 201, N-[4-(2-Furyl)-5-(pyridin-2-ylcarbonyl)thiazol-2-yl]-3-methoxybenzamide], the melting point lay within 165 to 166 °C.

The compound `COc1ccc(C(=O)Nc2nc(-c3ccco3)c(C(=O)c3ccccn3)s2)cc1` [Compound 202, N-[4-(2-Furyl)-5-(pyridin-2-ylcarbonyl)thiazol-2-yl]-4-methoxybenzamide] yielded a melting point of 187 to 188 °C. The result for `COc1ccc(C(=O)Nc2nc(-c3ccco3)c(C(=O)c3ccccn3)s2)cc1OC` [Compound 203, N-[4-(2-Furyl)-5-(pyridin-2-ylcarbonyl)thiazol-2-yl]-3,4-dimethoxybenzamide] reads 169 to 170 °C; that for `COc1cc(C(=O)Nc2nc(-c3ccco3)c(C(=O)c3ccccn3)s2)cc(OC)c1OC` [Compound 204, N-[4-(2-Furyl)-5-(pyridin-2-ylcarbonyl)thiazol-2-yl]-3,4,5-trimethoxybenzamide], 172 to 180 °C (dec.); that for `N#Cc1cccc(C(=O)Nc2nc(-c3ccco3)c(C(=O)c3ccccn3)s2)c1` [Compound 205, 3-Cyano-N-[4-(2-furyl)-5-(pyridin-2-ylcarbonyl)thiazol-2-yl]benzamide], 234 to 237 °C. In turn, `CC(=O)c1cccc(C(=O)Nc2nc(-c3ccco3)c(C(=O)c3ccccn3)s2)c1` [Compound 207, 3-Acetyl-N-[4-(2-furyl)-5-(pyridin-2-ylcarbonyl)thiazol-2-yl]benzamide] had a melting point of 168 to 169 °C. Compound `CC(=O)c1ccc(C(=O)Nc2nc(-c3ccco3)c(C(=O)c3ccccn3)s2)cc1` [Compound 208, 4-Acetyl-N-[4-(2-furyl)-5-(pyridin-2-ylcarbonyl)thiazol-2-yl]benzamide] registered a melting point of 204 to 206 °C.

As for `O=C(Nc1nc(-c2ccco2)c(C(=O)c2ccccn2)s1)c1ccc2c(c1)OCO2` [Compound 209, N-[4-(2-Furyl)-5-(pyridin-2-ylcarbonyl)thiazol-2-yl]-3,4-methylenedioxybenzamide], the melting point fell in the range of 235 to 236 °C. `O=C(Nc1nc(-c2ccco2)c(C(=O)c2ccccn2)s1)c1ccc2c(c1)OCCO2` [Compound 210, N-[4-(2-Furyl)-5-(pyridin-2-ylcarbonyl)thiazol-2-yl]-1,4-benzodioxane-6-carboxamide] returned a melting point of 189 to 191 °C. `O=C(c1ccccn1)c1sc(NC(=O)C2COc3ccccc3O2)nc1-c1ccco1` (stereo not shown) [Compound 211, N-[4-(2-Furyl)-5-(pyridin-2-ylcarbonyl)thiazol-2-yl]-1,4-benzodioxane-2-carboxamide] returned a melting point of 103 to 104 °C.

Take `Cc1cc(C(=O)Nc2nc(-c3ccco3)c(C(=O)c3ccccn3)s2)ccn1` [Compound 212, N-[4-(2-Furyl)-5-(pyridin-2-ylcarbonyl)thiazol-2-yl]-2-methylpyridine-4-carboxamide]: the melting point lay in the range of 187 to 188 °C. As for `O=C(Nc1nc(-c2ccco2)c(C(=O)c2ccccn2)s1)c1ccnc(Cl)c1` [Compound 214, 2-Chloro-N-[4-(2-furyl)-5-(pyridin-2-ylcarbonyl)thiazol-2-yl]pyridine-4-carboxamide], the melting point is 219 to 225 °C. In turn, `O=C(Nc1nc(-c2ccco2)c(C(=O)c2ccccn2)s1)c1ccncc1Cl` [Compound 215, 3-Chloro-N-[4-(2-furyl)-5-(pyridin-2-ylcarbonyl)thiazol-2-yl]pyridine-4-carboxamide] showed a melting point of 206 to 207 °C. Turning to `O=C(Nc1nc(-c2ccco2)c(C(=O)c2ccccn2)s1)c1cc(Cl)nc(Cl)c1` [Compound 216, 2,6-Dichloro-N-[4-(2-furyl)-5-(pyridin-2-ylcarbonyl)thiazol-2-yl]pyridine-4-carboxamide], the melting point fell in the range of 254 to 258 °C. Consider `COCCN(C)c1cc(C(=O)Nc2nc(-c3ccco3)c(C(=O)c3ccccn3)s2)ccn1` [Compound 217, N-[4-(2-Furyl)-5-(pyridin-2-ylcarbonyl)thiazol-2-yl]-2-[N-(2-methoxyethyl)-N-methylamino]pyridine-4-carboxamide], for which the melting point lay in the range of 114 to 117 °C. Take `O=C(Nc1nc(-c2ccco2)c(C(=O)c2ccccn2)s1)c1ccnc(N2CCCCC2)c1` [Compound 218, N-[4-(2-Furyl)-5-(pyridin-2-ylcarbonyl)thiazol-2-yl]-2-piperidinopyridine-4-carboxamide]: the melting point was 136 to 141 °C. In turn, `O=C(Nc1nc(-c2ccco2)c(C(=O)c2ccccn2)s1)c1ccnc(N2CCOCC2)c1` [Compound 219, N-[4-(2-Furyl)-5-(pyridin-2-ylcarbonyl)thiazol-2-yl]-2-morpholinopyridine-4-carboxamide] gave a melting point of 216 to 217 °C. Consider `Cc1ncccc1C(=O)Nc1nc(-c2ccco2)c(C(=O)c2ccccn2)s1` [Compound 221, N-[4-(2-Furyl)-5-(pyridin-2-ylcarbonyl)thiazol-2-yl]-2-methylpyridine-3-carboxamide], for which the melting point lay within 186 to 187 °C. Compound `Cc1ccc(C(=O)Nc2nc(-c3ccco3)c(C(=O)c3ccccn3)s2)cn1` [Compound 222, N-[4-(2-Furyl)-5-(pyridin-2-ylcarbonyl)thiazol-2-yl]-2-methylpyridine-5-carboxamide] had a melting point of 210 to 215 °C. Consider `Cc1cncc(C(=O)Nc2nc(-c3ccco3)c(C(=O)c3ccccn3)s2)c1` [Compound 223, N-[4-(2-Furyl)-5-(pyridine-2-ylcarbonyl)thiazol-2-yl]-5-methylpyridine-3-carboxamide], for which the melting point is 245 to 248 °C. In the case of `COc1ccc(C(=O)Nc2nc(-c3ccco3)c(C(=O)c3ccccn3)s2)c(OC)n1` [Compound 224, N-[4-(2-Furyl)-5-(pyridin-2-ylcarbonyl)thiazol-2-yl]-2,6-dimethoxypyridine-3-carboxamide], the melting point is 201 to 202 °C.

As to `O=C(Nc1nc(-c2ccco2)c(C(=O)c2ccccn2)s1)c1cncc(Br)c1` [Compound 226, 5-Bromo-N-[4-(2-furyl)-5-(pyridin-2-ylcarbonyl)thiazol-2-yl]pyridine-3-carboxamide], the melting point fell in the range of 259 to 262 °C. For the compound `O=C(Nc1nc(-c2ccco2)c(C(=O)c2ccccn2)s1)c1ccnnc1` [Compound 227, N-[4-(2-Furyl)-5-(pyridin-2-ylcarbonyl)thiazol-2-yl]pyridazine-4-carboxamide], the melting point lay in the range of 270 to 274 °C. As for `O=C(Nc1nc(-c2ccco2)c(C(=O)c2ccccn2)s1)c1cnc(C2CC2)nc1` [Compound 229, 2-Cyclopropyl-N-[4-(2-furyl)-5-(pyridin-2-ylcarbonyl)thiazol-2-yl]pyrimidine-5-carboxamide], the melting point lay within 150 to 154 °C.

Take `Cc1cnc(C(=O)Nc2nc(-c3ccco3)c(C(=O)c3ccccn3)s2)cn1` [Compound 230, N-[4-(2-Furyl)-5-(pyridine-2-ylcarbonyl)thiazol-2-yl]-5-methylpyrazine-2-carboxamide]: the melting point lay in the range of 208 to 209 °C. With `O=C(Nc1nc(-c2ccco2)c(C(=O)c2ccccn2)s1)c1cc[nH]c(=O)c1` [Compound 231, N-[4-(2-Furyl)-5-(pyridin-2-ylcarbonyl)thiazol-2-yl]-2-oxo-1,2-dihydropyridine-4-carboxamide], the melting point was 170 to 180 °C (dec.). For `O=C(Nc1nc(-c2ccco2)c(C(=O)c2ccccn2)s1)c1ccn(Cc2ccccc2)c(=O)c1` [Compound 232, 1-Benzyl-N-[4-(2-furyl)-5-(pyridin-2-ylcarbonyl)thiazol-2-yl]-2-oxo-1,2-dihydropyridine-4-carboxamide], the melting point was in the range of 269 to 270 °C.

The compound `Cn1ccc(C(=O)Nc2nc(-c3ccco3)c(C(=O)c3ccccn3)s2)cc1=O` [Compound 233, N-[4-(2-Furyl)-5-(pyridin-2-ylcarbonyl)thiazol-2-yl]-1-methyl-2-oxo-1,2-dihydropyridine-4-carboxamide] showed a melting point of 280 to 285 °C.

Turning to `O=C(Nc1nc(-c2ccco2)c(C(=O)c2ccccn2)s1)c1ccc(Br)o1` [Compound 235, 5-Bromo-N-[4-(2-furyl)-5-(pyridin-2-ylcarbonyl)thiazol-2-yl]furan-2-carboxamide], the melting point lay in the range of 211 to 212 °C. With `O=C(Nc1nc(-c2ccco2)c(C(=O)c2ccccn2)s1)c1ccc([N+](=O)[O-])o1` [Compound 236, N-[4-(2-Furyl)-5-(pyridin-2-ylcarbonyl)thiazol-2-yl]-5-nitrofuran-2-carboxamide], the melting point was 278 to 283 °C (dec.). Compound `Cc1ccoc1C(=O)Nc1nc(-c2ccco2)c(C(=O)c2ccccn2)s1` [Compound 237, N-[4-(2-Furyl)-5-(pyridin-2-ylcarbonyl)thiazol-2-yl]-3-methylfuran-2-carboxamide] returned a melting point of 174 to 176 °C. `O=C(Nc1nc(-c2ccco2)c(C(=O)c2ccccn2)s1)c1ccoc1` [Compound 238, N-[4-(2-Furyl)-5-(pyridin-2-ylcarbonyl)thiazol-2-yl]furan-3-carboxamide] showed a melting point of 187 to 189 °C.

In turn, `Cc1occc1C(=O)Nc1nc(-c2ccco2)c(C(=O)c2ccccn2)s1` [Compound 239, N-[4-(2-Furyl)-5-(pyridin-2-ylcarbonyl)thiazol-2-yl]-2-methylfuran-3-carboxamide] had a melting point of 183 to 186 °C. `Cc1cc(C(=O)Nc2nc(-c3ccco3)c(C(=O)c3ccccn3)s2)c(C)o1` [Compound 240, N-[4-(2-Furyl)-5-(pyridin-2-ylcarbonyl)thiazol-2-yl]-2,5-dimethylfuran-3-carboxamide] gave a melting point of 195 to 198 °C. On to `O=C(Nc1nc(-c2ccco2)c(C(=O)c2ccccn2)s1)c1cccs1` [Compound 241, N-[4-(2-Furyl)-5-(pyridin-2-ylcarbonyl)thiazol-2-yl]thiophene-2-carboxamide], for which the melting point fell in the range of 197 to 199 °C.
